Test results as given in patent US12329457B2, “Hyperspectral imaging for early detection of Alzheimer's disease” (REGENTS OF THE UNIVERSITY OF MINNESOTA, priority 2011, dated 2025).
Values belong to the molecule of their own block, whether it stands above or below them.

Columns and labels:
APP/PS1 mice [1] = experiment: Immunohistochemistry of brain tissue for Aβ load and plaques; assay type: in vivo, mouse
Description: (a) Isolation and analysis of brain tissue. Brains were removed from wild type and Alzheimer's mice and post fixed in Zamboni's fixative (4% paraformaldehyde and 15% picric acid in 0.25 M sodium phosphate, pH 7.5) for 48 h before being cryopreserved in a 30% (wt/vol) sucrose/0.1 sodium phosphate-buffered saline solution. Frozen sections (10 μm) in OCT were cut on a sliding microtome, brought to room temperature and were coverslipped with hardset Vectashield mounting medium with the nuclear stain DAPI (catalogue #H-1500; Vector Laboratories, Burlingame, CA). The whole-mount brain slides were scanned with Cytoviva microscope and spectral signatures were collected from wavelengths in the 400-1000 nm range as described.
(c) Immunohistochemistry of mouse brain and retina samples. For immunofluorescence studies, brain section slides and retina sample slides were pre-incubated for 1 hour in 5% normal goat serum (NGS) in 1×PBST (1×PBS containing 0.3% Triton X-100) at room temperature. A primary antibody against β-amyloid peptide ((Cell signaling, Cat. #2454) was employed then at a dilution of 1:200 in 1% NGS in 1×PBST. After an overnight incubation at 4° C., the slides were rinsed thrice for 10 min with 1×PBST and then incubated for 2 h in goat anti-rabbit IgG conjugated to Cy3 diluted to 1:1000 in 1% NGS in 1× PBST. The sections were rinsed in PBST thrice for 10 min and in PBS for 5 min. Samples were then dehydrated in ethanol, cleared with methyl salicylate, mounted in DEPEX (Electron Microscopy Science, Poole, UK) and staining of β-amyloid aggregates and plaques was visualized with Cytoviva microscope.
(§1) Hyperspectral Imaging to follow treatment success in Alzheimer's mice Alzheimer's and wild type mice were treated with a candidate drug, ψ-GSH, three times a week for 12 weeks starting at the age of three to four months. (see More et al., (2012) Restoration of Glyoxalase Enzyme Activity Precludes Cognitive Dysfunction in a Mouse Model of Alzheimer's Disease. ACS Chem. Neurosci., DOI: 10.1021/cn3001679) The study was divided in four groups (10 mice/group). 1. […]

APP/PS1 mice [2] = experiment: Retinal HSI spectra to follow treatment in APP/PS1 mice; assay type: in vivo, mouse
Description: (b) Isolation and analysis of retina tissue. Eyes were enucleated from wild type and Alzheimer's mice at the desired age. For whole-mount retinas, eyes were fixed in […] of freshly prepared 4% PFA-PBS at room temperature for 45 minutes. This was followed by washing with ice-cold PBS solution (2 mL) at least five times. The anterior eye portion, cornea, was dissected out under surgical microscope. The iris was then removed followed by the sclera, lens and hyaloid vessels. The isolated retinas were then washed with ice-cold PBS and divided into four quadrants by making four radial incisions. The whole-mounts were prepared by transferring the dissected retinas onto a microscope slide and coverslipped with hardset Vectashield mounting medium with the nuclear stain DAPI. The whole-mount retina slides were scanned with Cytoviva microscope and spectral signatures were collected from wavelengths in the 400-1000 nm range as described before.
as §1

APP/PS1 mice [3] = experiment: Morris Water maze memory test in APP/PS1 mice; assay type: in vivo, mouse
SH-SY5Y cells = experiment: HSI spectral signature of cells exposed to Aβ1-42; assay type: cell-based, human
Description: Cell Culture and Cellular Uptake. The human neuroblastoma cell line, SH-SY-5Y, used in the present study was obtained from American Type Culture Collection (Manassas, VA). The cells were maintained in MEM:F12 (1:1) medium supplemented with 10% FBS, 100 units/mL penicillin and 100 units/mL streptomycin and 1% NEAA (non-essential amino acid). Cells were grown at 37° C. in a humidified atmosphere with 5% CO2/95% air. FITC-Aβ1-42, and FITC-scrambled-Aβ1-42, were added to SHSY5Y cultures for 24 h. For time-dependence experiments, 250 nM FITC-Aβ1-42 was added to SHSY5Y cells, plated in 4-well Lab-Tek chamber slides (Nunc) and images as well as spectral scans (Cytoviva) were acquired at varying times (0-5 days) after addition of the labeled-Aβ1-42. For dose-dependence experiments, FITC-Aβ1-42 was added at varying concentrations (0-1000 nM) and imaged 24 h thereafter. […]
(§2) The images were captured at 40× magnification using ENVI software, which is followed by extraction of spectral curves as described in the next section. The camera captured spectral responses from 400-1000 nm with a maximum readout time of 12 frames per second. […]
(§3) Acquisition of Spectral Scans from Hyperspectral Image The CytoViva Hyperspectral image analysis software powered by ENVI contains features to aid in the quantification and identification of materials by spectral data analysis. […]

Aβ^1-42 aggregation = biological target: T1, Aβ^1-42 aggregation (Homo sapiens, UniProt P05067); experiment: HSI spectral signature inhibitor screening in Aβ1-42-treated SH-SY5Y cells; assay type: cell-based; conditions: cells co-incubated with inhibitor and Aβ^1-42; rank guanidine, then guanosine, then urea
T1 construct: Aβ1-42, FITC-Aβ1-42 and FITC-scrambled-Aβ1-42 were purchased from American Peptide Company; purchased American Peptide Company (Sunnyvale, CA, USA); host or cells: synthetic peptide added to SH-SY5Y cell cultures
Description: Cell Culture and Cellular Uptake. The human neuroblastoma cell line, SH-SY-5Y, used in the present study was obtained from American Type Culture Collection (Manassas, VA). The cells were maintained in MEM:F12 (1:1) medium supplemented with 10% FBS, 100 units/mL penicillin and 100 units/mL streptomycin and 1% NEAA (non-essential amino acid). Cells were grown at 37° C. in a humidified atmosphere with 5% CO2/95% air. FITC-Aβ1-42, and FITC-scrambled-Aβ1-42, were added to SHSY5Y cultures for 24 h. For time-dependence experiments, 250 nM FITC-Aβ1-42 was added to SHSY5Y cells, plated in 4-well Lab-Tek chamber slides (Nunc) and images as well as spectral scans (Cytoviva) were acquired at varying times (0-5 days) after addition of the labeled-Aβ1-42. For dose-dependence experiments, FITC-Aβ1-42 was added at varying concentrations (0-1000 nM) and imaged 24 h thereafter. In some experiments, SH-SY-5Y cells were incubated with FITC-Aβ1-42 for 48 h in the presence and absence of inhibitors or promoters of β-amyloid peptide.
CytoViva hyperspectral imaging System After each treatment, slides were examined utilizing a CytoViva microscope and hyperspectral imaging system (CytoViva-Hyperspectral Imaging System (HSI), Auburn, AL; see the Cytoviva Hyperspectral Imaging System Manual) mounted on an Olympus BX-41 optical microscope. This system employs a darkfield-based illuminator that focuses a highly collimated light at oblique angles on the sample to obtain images with improved contrast and signal-to-noise ratio. […]
as §2, §3

Aβ^1-42 aggregates = biological target: T2, Aβ^1-42 aggregates (Homo sapiens, UniProt P05067); experiment: HSI with Spectral Angle Mapper (SAM) mapping and counting of intracellular amyloid aggregates; assay type: cell-based; conditions: HSI imaging coupled with SAM
T2 construct: Aβ1-42, FITC-Aβ1-42 and FITC-scrambled-Aβ1-42 were purchased from American Peptide Company; purchased American Peptide Company (Sunnyvale, CA, USA); host or cells: synthetic peptide added to SH-SY5Y cell cultures
Description: Cell Culture and Cellular Uptake. The human neuroblastoma cell line, SH-SY-5Y, used in the present study was obtained from American Type Culture Collection (Manassas, VA). The cells were maintained in MEM:F12 (1:1) medium supplemented with 10% FBS, 100 units/mL penicillin and 100 units/mL streptomycin and 1% NEAA (non-essential amino acid). Cells were grown at 37° C. in a humidified atmosphere with 5% CO2/95% air. FITC-Aβ1-42, and FITC-scrambled-Aβ1-42, were added to SHSY5Y cultures for 24 h. […]
as §2
Spectral Angle Mapping Classification Algorithm Among supervised classification methods, a SAM classification algorithm was selected due to its better performance than other classification algorithms for detection of β-amyloid aggregates in unknown samples. […] The spectral angle parameter value as α=0·1 or 0·2 was used for a SAM classifier where α is defined as the angle between testing spectrum vector a, and reference spectrum vector b and is calculated using the following equation: (Also, see FIG. 14, and Siddiqi et al., Cancer, 114(1), 13-21 (2008).

T1 sequence (P05067 672-713): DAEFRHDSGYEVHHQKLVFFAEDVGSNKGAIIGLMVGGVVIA
T2 sequence (P05067 672-713): as above

Molecule: N[C@@H](CNC(=O)N[C@@H](CS)C(=O)NCC(=O)O)C(=O)O [ψ-GSH]
brain Aβ load (APP/PS1 mice [1]; i.p., versus untreated APP/PS1 mice): significantly lower Aβ load | Aβ plaques in brain relative to controls (APP/PS1 mice [1]; orally treated APP/PS1 mice): modest decrease in Aβ plaques | number and sizes of Aβ plaques in brain (APP/PS1 mice [1]; ψ-GSH treated group (i.p.)): drastically reduced | retinal HSI spectra (APP/PS1 mice [2]; APP/PS1 mice treated orally): did not exhibit any differences from those of transgenic mice | retinal HSI spectra (APP/PS1 mice [2]; APP/PS1 mice, ψ-GSH i.p. 12 weeks, after 2 months of treatment onward): tended toward those from normal mice | spatial memory development and escape latencies relative to the saline-treated group (APP/PS1 mice [3]; APP/PS1 mice treated orally): did not reach statistical significance | escape latency (APP/PS1 mice [3]; day 3, ψ-GSH treated mice (WT saline 17.29±2.13 s)): 17.91 ± 4.65 s | escape latency (APP/PS1 mice [3]; day 4, ψ-GSH treated mice (WT saline 12.42±2.18 s)): 14.64 ± 2.61 s | learned behavior during the first week of testing (APP/PS1 mice [3]; i.p.): significant learned behavior inculcation | time in the target quadrant, probe trial (APP/PS1 mice [3]; i.p., untreated APP-PS1 16.39±3.39%, non-transgenic vehicle 36.67±5.30%): 38.43±3.73% | time in the target quadrant, probe trial (APP/PS1 mice [3]; orally treated APP/PS1 mice): 21.76±5.36%

Molecule: Aβ^1-42: β-amyloid peptide purchased from American Peptide Company; FITC-labelled form used for cell uptake
time at which transmitted light reaches its nadir (SH-SY5Y cells; 250 nM peptide, HSI spectra over time): 48 h | HSI spectral change in the 400-1000 nm wavelength region (SH-SY5Y cells; SH-SY5Y cells, 0-1000 nM peptide): transmitted light shifts to lower values

Molecule: Nc1nc2c(ncn2[C@@H]2O[C@H](CO)[C@@H](O)[C@H]2O)c(=O)[nH]1 [guanosine]
attenuation of amyloid-induced HSI spectral change (Aβ^1-42 aggregation): attenuation of amyloid-induced HSI spectral change

Molecule: NC(N)=O [urea]
attenuation of amyloid-induced HSI spectral change (Aβ^1-42 aggregation): attenuation of amyloid-induced HSI spectral change

number of intracellular amyloid aggregates compared to cells treated with Aβ^1-42 alone (Aβ^1-42 aggregates): 62%
Molecule: N=C(N)N [guanidine, Guanidine]
attenuation of amyloid-induced HSI spectral change (Aβ^1-42 aggregation): greatest attenuation in HSI spectral change

number of intracellular amyloid aggregates compared to cells treated with Aβ^1-42 alone (Aβ^1-42 aggregates): 280%
Molecule: [Zn+2] [Zn^2+]
